Assay results taken from patent publication US10550165B2, “Peptide for inducing regeneration of tissue and use thereof” (STEMRIM INC., priority 2011, dated 2020).

What was measured:
[1] = system: skin flap made on the back of a rat; assay: Skin flap (skin damage) model on the back of rats; type: in vivo; details: six weeks after skin flap production; 50 μg/administration/day, five administrations, FIG. 26
[2] = system: mouse bone marrow mesenchymal stem cell line (MSC-1 cells), PDGFRα-positive; assay: Migration assay (Boyden / 48-well chemotaxis chamber) on bone marrow mesenchymal stem cell line MSC-1; type: cell-based
How it was run: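 Mouse MSC-1 cells (3×10^6 cells/ml in D-MEM with 10% FBS) loaded in the upper wells of a 48-well Boyden chamber with 8 μm polycarbonate membrane; mouse HMGB1 peptides or HEK293-made HMGB1 in lower wells at 100 μg/ml, 5 μM or 10 μM; PBS as negative control. After 4 h at 37° C, migrated cells were Diff-Quik stained.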

[3] = system: skin flap made on the back of a rat; assay: Skin flap (skin damage) model on the back of rats; type: in vivo; details: for area of wound section (necrosed section) in the skin flap: FIG. 25
Protocol: Experimental animals used were SD rats (male, eight weeks old). After sufficiently deep anesthesia by isoflurane inhalation, a rectangular skin incision of 3 cm width×7 cm length was made on the back. The cephalic side was left uncut, and the skin was thoroughly detached from the subcutaneous tissues. The three incised sides were sutured to the surrounding skin using #4 silk suture, and protected with Tegaderm (3M) to prevent bacterial infection.
The full-length mouse HMGB1 (100 μg/administration/day) produced in HEK293 and chemically synthesized HMGB1 peptide (amino acids 1 to 44; 50 μg/administration/day) were diluted to 200 μl with phosphate buffer and administered to rats via the caudal vein. The first administration was performed 6 hours after the surgery, and then the agents were administered every 24 hours a total of five times. Phosphate-buffered physiological saline was administered as a negative control. Tegaderm was removed after one week, and the wound region was observed weekly to measure the areas of necrosis and ulceration.
Experimental animals used were 15 SD rats (male, eight weeks old) per group. After sufficient anesthesia by isoflurane inhalation, a rectangular skin incision of 3 cm width×7 cm length was made on the back. The cephalic side was left uncut, and the skin was thoroughly detached from the subcutaneous tissues. The incised three sides were sutured to the surrounding skin using #4 silk suture, and protected with Tegaderm (3M) to prevent bacterial infection.
Chemically synthesized HMGB1 peptide (amino acids 1-44; 50 μg/administration/day) or HMGB1 peptide (amino acids 17-25; 50 μg/administration/day) was diluted to 200 μl with phosphate buffer and administered to the rats with experimental wound. The first administration was performed 6 hours after the surgery, and then the agents were administered every 24 hours a total of five times. Phosphate-buffered physiological saline was administered as a negative control. Tegaderm was removed after one week, and the wound was observed two weeks after the wound production. Uncured areas (ulceration and necrosis) were measured.

[4] = 2 μM, area of migrated cells by image analysis, FIG. 10

“synthetic peptide (1-44): chemically synthesized HMGB1 peptide, amino acids 1 to 44, mouse HMGB1 sequence (MGKGDPKKPRGKMSSYAFFVQTCREEHKKKHPDASVNFSEFSKK; UniProt P63158 1-44, looked up, fragment)” was tested, and the “ratio of the uncured area relative to the area of the whole skin flap, average” value [1] was 4.1%, the “migration-promoting activity relative to the full-length HMGB1, compared per equal mass” value [2, 4] was 2.86 times and the “migration-promoting activity relative to the full-length HMGB1, compared per equal mole” value [2, 4] was 0.57 times. For the same substance, the migration-promoting activity ([2]; synthetic peptides, 100 μg/ml, positive control 1-215(HEK), FIG. 7) was “activity comparable to or higher than that of the positive control”, the “area of wound section (necrosed section) in the skin flap” value ([3]; after four weeks and later, versus the other two groups) was “a further shrinking effect was observed” and the “area of wound section (necrosed section) in the skin flap” value ([3]; one to three weeks after the skin flap was made, versus negative control) was “effect of shrinking the wound section was confirmed”. The “rats in which skin necrosis developed” value ([3]; one week after surgery, caudal vein, five administrations, full-length 100 μg, peptide 50 μg/administration/day, negative control four of five) was “one of five rats”, the “rats with severe skin contracture” value ([3]; seven weeks after surgery, same regimen, negative control four of five, FIG. 24) was “two of five rats” and the “ratio of the uncured area relative to the area of the whole skin flap, average” value ([3]; two weeks after skin flap production, 50 μg/administration/day, five administrations, 15 SD rats per group, FIG. 26) was 14.1%.
